In brackets after ≈: the same amount, converted by molar mass. Read-outs that look alike come from different tables or passages of the source.
Tests used:
Trichomonas vaginalis = assay: In vitro activity against T. vaginalis (IC50 determination); type: cell-based; details: 37° C., aerobic, Modified Diamonds Medium
Experimental: The antiprotozoal e.g. antitrichomonal, activity of the compounds of the present invention may be assessed by conventional methods, for example by determining the minimum inhibition concentration (m.i.c.) or 50% inhibition level (IC50).
Modified Diamonds Medium (MDM) was prepared according to the method described in J. Kulda et al., American Journal of Obstetrics and Gynaecology 1970, 108, 908-18 and 4 cm^3 of the medium was pipetted into each of a series of tubes (usually 16 tubes). To each tube was added 0.5 cm^3 of varying concentration of a solution (usually in ethanol+MDM) or suspension of the test drug. Duplicate tubes for each drug concentration were prepared.
Finally, to each tube was added T. vaginalis (0.5 cm^3) at a concentration of 1×10^5 cm^-3,) to give a final trichomonad concentration of 1×10^4 cm^-3 in each tube. The tubes were then incubated (aerobically) at 37° C. and the resulting trichomonad numbers were counted at 24 and 48 hours using a haemacytometer.
This information was then used to determine the 50% inhibition concentration (IC50).

Candida albicans = assay: In vitro activity against Candida albicans (minimum inhibition concentration); type: cell-based; details: Yeast Nitrogen Base (YNB) broth; salt form given per compound
Experimental: The antifungal activity of the compounds of the present invention may be evaluated by determining the minimum fungistatic (inhibition) concentration (m.i.c.). This test is usually performed by preparing a series of plates or tubes containing a suitable nutrient medium, each plate or tube also containing a different concentration of the test compound and then inoculating the medium with the fungal species. After an incubation period the plates are examined visually for the presence or absence of fungal growth. The m.i.c. is the minimum concentration required to prevent fungal growth.
Minimum Inhibition Concentrations (MICs) of compounds of the present invention vs. C. albicans were determined.
The solution was filter sterilised with a 0.45 μm membrane filter unit and was then further diluted with sterile distilled water (SDW)-YNB solution: SDW (1:5).

[1] = 24 hr, 1×10^4 trichomonads cm^-3, read-out: IC50 24 hr
[2] = 48 hr, 1×10^4 trichomonads cm^-3, read-out: IC50 48 hr

Compound | IC50 (Trichomonas vaginalis; [1]) [µg/mL] | IC50 (Trichomonas vaginalis; [2]) [µg/mL] | MIC (Candida albicans) [µg/mL]
C=CCCOc1ccc2c(c1)CCN=C2C=Cc1ccc(Cl)cc1 [Example 45, 6-(But-3-enyloxy)-1-(4-chlorostyryl)-3,4-dihydroisoquinoline] | 2.2 (≈ 6.51 µM) | 2.8 (≈ 8.29 µM) | 6.2
Clc1ccccc1C=CC1=NCCc2cc(OCC3CCCCC3)ccc21 [Example 39, 1-(2-Chlorostyryl)-6-cyclohexylmethoxy-3,4-dihydroisoquinoline] |  |  | 1.6
CCCCOc1ccc2c(c1)CCN=C2C=Cc1ccc(C#N)cc1 [Example 13, 6-Butyloxy-3,4-dihydro-1-(4-cyanostyryl)isoquinoline] | 1.5 (≈ 4.54 µM) | 2.5 (≈ 7.57 µM) | 6.2
CCCOc1ccc2c(c1)CCN=C2/C=C/C1CCCCC1 [Example 6, (E)-1-(2-Cyclohexylvinyl)-3,4-dihydro-6-propyloxyisoquinoline] | 0.4 (≈ 1.34 µM) | 0.4 (≈ 1.34 µM) | 25
CCCCOc1ccc2c(c1)CCN=C2C=Cc1ccc(C)s1 [Example 144, 6-Butyloxy-3,4-dihydro-1-(2-(5-methyl-2-thienyl)vinyl)isoquinoline] |  |  | 1.6
CCCCOc1ccc2c(c1)CCN=C2/C=C/C1CCCCC1 [Example 1, (E)-6-Butyloxy-1-(2-cyclohexylvinyl)-3,4-dihydroisoquinoline] | 1.3 (≈ 4.17 µM) | 1.8 (≈ 5.78 µM) | 1.6
N#Cc1ccc(C=CC2=NCCc3cc(OCc4ccccc4)ccc32)cc1 [Example 52, 6-Benzyloxy-1-(4-cyanostyryl)-3,4-dihydroisoquinoline] | 2.9 (≈ 7.96 µM) | 3.2 (≈ 8.78 µM) | 6.2
CCCCOc1ccc2c(c1)CCN=C2C=Cc1ccccc1 [Example 3, 6-Butyloxy-3,4-dihydro-1-styrylisoquinoline] | 3.7 (≈ 12.1 µM) | 8.8 (≈ 28.8 µM) | 6.2
CCCCOc1ccc2c(c1)CCN=C2C=Cc1ccc(Cl)cc1 [Example 22, 6-Butyloxy-1-(4-chlorostyryl)-3,4-dihydroisoquinoline] |  |  | 3.1
C(=CC1CCCCC1)C1=NCCc2cc(OCc3ccccc3)ccc21 [Example 2, 6-Benzyloxy-1-[2-cyclohexylvinyl]-3,4-dihydroisoquinoline] | 1 (≈ 2.89 µM) | 1.8 (≈ 5.21 µM) | 1.6
C/C=C/C=C/C1=NCCc2cc(OCCCC)ccc21 [Example 128, (E,E)-6-Butyloxy-3,4-dihydro-1-(penta-1,3-dienyl)isoquinoline] | 1.5 (≈ 5.57 µM) | 1.6 (≈ 5.94 µM) | 25
Clc1ccc(C=CC2=NCCc3cc(OCc4ccccc4)ccc32)cc1 [Example 57, 6-Benzyloxy-1-(4-chlorostyryl)-3,4-dihydroisoquinoline] |  |  | 6.2
CCCOc1ccc2c(c1)CCN=C2C=Cc1ccc(Cl)cc1Cl [Example 31, 1-(2,4-Dichlorostyryl)-3,4-dihydro-6-propyloxyisoquinoline] |  |  | 6.2
CCCCOc1ccc2c(c1)CCN=C2/C=C/c1c(F)c(F)c(F)c(F)c1F [Example 23, (E)-6-Butyloxy-1-(2-pentafluorophenyl)vinyl-3,4-dihydroisoquinoline] | 1.1 (≈ 2.78 µM) | 2.3 (≈ 5.82 µM) | 6.2
O=[N+]([O-])c1ccc(/C=C/C2=NCCc3cc(OCc4ccccc4)ccc32)o1 [Example 115, (E)-6-Benzyloxy-3,4-dihydro-1-[2-(5-nitro-2-furyl)]vinyl isoquinoline] | 0.4 (≈ 1.07 µM) | 1 (≈ 2.67 µM) | 
CCCc1c(O)c(OC)cc2c1CCN=C2C=Cc1ccccc1Cl [Example 180, 1-(2-Chlorostyryl)-3,4-dihydro-6-hydroxy-7-methoxy-5-propylisoquinoline] | 1 (≈ 2.81 µM) | 1.6 (≈ 4.5 µM) | 
Clc1ccc(COc2ccc3c(c2)CCN=C3C=Cc2ccc(Cl)cc2Cl)cc1 [Example 85, 6-(4-Chlorobenzyloxy)-1-(2,4-dichlorostyryl)-3,4-dihydroisoquinoline] | 1.1 (≈ 2.48 µM) | 1.5 (≈ 3.39 µM) | 
CC(C)CCOc1ccc2c(c1)CCN=C2C=Cc1ccc(Cl)cc1 [Example 50, 1-(4-Chlorostyryl)-3,4-dihydro-6-(3-methylbutyloxy)-isoquinoline] |  |  | 6.2
CCCCCCOc1ccc2c(c1)CCN=C2C=Cc1ccc(C#N)cc1 [Example 75, 1-(4-Cyanostyryl)-6-hexyloxy-3,4-dihydroisoquinoline] | 0.3 (≈ 0.837 µM) | 0.8 (≈ 2.23 µM) | 
C(=Cc1ccc(-c2ccccc2)cc1)C1=NCCc2cc(OCc3ccccc3)ccc21 [Example 82] | 0.6 (≈ 1.44 µM) | 2 (≈ 4.81 µM) | 
Clc1ccc(C=CC2=NCCc3cc(OCc4ccccc4)c(OCc4ccccc4)cc32)c(Cl)c1 [Example 170, 6,7-Bisbenzyloxy-1-(2,4-dichlorostyryl)-3,4-dihydroisoquinoline] | 1 (≈ 1.94 µM) | 3.2 (≈ 6.22 µM) | 
CC(C)COc1ccc2c(c1)CCN=C2/C=C/C1CCCCC1 [Example 5, (E)-1-(2-Cyclohexylvinyl)-3,4-dihydro-6-(2-methylpropyloxy)isoquinoline] | 6.1 (≈ 19.6 µM) | 6.4 (≈ 20.5 µM) | 6.2
CCCCOc1cc2c(cc1OCCCC)C(C=Cc1ccc(Cl)cc1)=NCC2 [Example 157, 6,7-Dibutyloxy-1-(4-chlorostyryl)-3,4-dihydroisoquinoline] | 1.8 (≈ 4.37 µM) | 2.1 (≈ 5.1 µM) | 
CC(C)(C)c1ccc(COc2ccc3c(c2)CCN=C3C=Cc2ccccc2)cc1 [Example 80, 6-(4-t-Butylbenzyloxy)-3,4-dihydro-1-styrylisoquinoline] | 2.5 (≈ 6.32 µM) | 2.4 (≈ 6.07 µM) | 
CC(C)(C)c1ccc(Oc2ccc3c(c2)CCN=C3C=Cc2ccc(Cl)cc2Cl)cc1 [Example 71, 6-(4-t-Butylphenoxy)-1-(2,4-dichlorostyryl)-3,4-dihydroisoquinoline] | 0.8 (≈ 1.78 µM) | 1.4 (≈ 3.11 µM) | 
CCCCOc1ccc2c(c1)CCN=C2/C=C/c1ccsc1 [Example 107, (E)-6-Butyloxy-3,4-dihydro-1-(3-thienyl)vinylisoquinoline] |  |  | 25

— patent US4968698A, “Nitrogen containing heterocyclic compounds” (Burroughs Wellcome Co., priority 1984, dated 1990)
